“Also recorded” adds a separate entry of the source. Ends that are not written are not given here.
How the values were obtained:
hATP6V1B2 = hATP6V1B2 (Homo sapiens, UniProt P21281); assay: Co-immunoprecipitation of Myc-tagged hATP6V1B2 with GFP-tagged QD202 and site mutants (HEK 293 lysates, western blot); type: binding; conditions: expressed from pEGFP-N3 plasmids in HEK 293, anti-GFP IP, FIG. 7A, 7B
Description: Expression plasmids of hATP6V1B2, QD202, site-mutated QD202(D15A), site-mutated QD202(V16A), site-mutated QD202(P13A), and site-mutated QD202(V14A) were constructed respectively. The hATP6V1B2 was co-transfected into HEK 293 cells with the expression plasmids of QD202, site-mutated QD202(D15A), site-mutated QD202(V16A), site-mutated QD202(P13A) and site-mutated QD202(V14A), respectively, and cellular proteins were extracted 48 h after transfection. Table 1: Plasmid sequences
Protein extraction was performed using Pierce RIPA lysis buffer. Taking cells in a 60 mm culture dish as an example, 500 µL of Pierce RIPA lysis buffer containing protease inhibitors was added. Cells were collected and transferred to a clean 1.5 mL EP tube using a cell scraper. After mixing for 1 h on a rotary mixer at 4°C, the cells were centrifuged at 13,000 rpm at 4°C for 10 min to remove cell debris. The hATP6V1B2 was equally divided into […], which were then mixed separately with the cell lysates transfected with QD202, site-mutated QD202(P13A), site-mutated QD202(V14A), site-mutated QD202(D15A), and site-mutated QD202(V16A), 30 µL of the supernatant was taken and mixed with 10 µL of 4× loading buffer, followed by boiling at 100°C for 5 min and storage at -20°C; 2 µL of the antibody (Anti-GFP, Roche, 11814460001) was added to the remaining 470 µL of the protein lysate, and the mixture was incubated overnight (about 16-18 h) on a rotary shaker at 4°C. 30 µL of Protein G Sepharose beads (Roche, 11243233001) were placed in an EP tube and washed three times with Pierce RIPA lysis buffer to eliminate interference from the original stock solution. The protein that had been incubated with the antibody overnight was added to the Sepharose beads, followed by mixing and incubation at 4°C for 2 h to ensure sufficient binding between the antibody and the protein. The mixture was centrifuged at 4000 rpm for 1 min. The supernatant was aspirated off, followed by the addition of 600 µL of Pierce RIPA lysis buffer. The tube was gently inverted, followed by centrifugation to collect the supernatant. The above steps were repeated three times to wash away non-specifically bound proteins. Finally, 30 µL of 1×loading buffer was added, the mixture was mixed well, heated at 60°C for 20 min to denature the protein, and then stored at -20°C. The protein was examined by western blot (Myc-Tag (9B11) Mouse mAb, CST, 2276S; Anti-GFP, Roche, 11814460001).
The hATP6V1B2 was co-transfected into the host cell line HEK 293 with the expression plasmids of QD202, site-mutated QD202(P13A), site-mutated QD202(V14A), site-mutated QD202(D15A) and site-mutated QD202(V16A), respectively. […] It is therefore hypothesized that valine at position 16 of QD202 is one of the key amino acids for the binding between hATP6V1B2 and QD202, whereas proline at position 13, valine at position 14 and aspartic acid at position 15 can be replaced with alanine, as illustrated in FIG. 7A and FIG. 7B.

APP/PS1 transgenic mice [1] = assay: Novel object recognition test in AD mice; type: in vivo; conditions: continuously for 1 week
APP/PS1 transgenic mice [2] = assay: Morris water maze test in AD mice; type: in vivo; conditions: continuously for 1 week
DIR protein = assay: Co-immunoprecipitation of QD202-Biotin peptide with Flag-His-DIR (HEK 293 lysate, western blot and dot blot); type: binding, human; conditions: QD202-Biotin peptide added to lysate of Flag-His-DIR transfected HEK 293; anti-Biotin IP; FIG. 14
Description: The Flag-His-DIR expression plasmid was transfected into HEK 293, and cell proteins were extracted 48 h after transfection. Table 2: Plasmid sequences
Protein extraction was performed using Pierce RIPA lysis buffer, 1000 µL of Pierce RIPA lysis buffer containing protease inhibitors was added. Cells were collected and transferred to a clean 1.5 mL EP tube using a cell scraper. After mixing for 1 h on a rotary mixer at 4°C, the cells were centrifuged at 13,000 rpm at 4°C for 10 min to remove cell debris. The supernatant of the cell lysate was divided into two aliquots, each 500 µL, and 10 µL of QD202-Biotin peptide at a concentration of 1 mM was added to one aliquot. From each of the two aliquots, 30 µL of the supernatant was taken and mixed with 10 µL of 4× loading buffer. The mixture was boiled at 100°C for 5 min and then stored frozen at -20°C. For the remaining 470 µL of protein lysate, 2 µL of the antibody (Anti-Biotin, Vector, sp-3000) was added; the mixture was incubated overnight (about 16-18 h) on a rotary shaker at 4°C. 30 µL of Protein G Sepharose beads (Roche, 11243233001) were placed in an EP tube and washed three times with Pierce RIPA lysis buffer. […] The protein was detected by Western blot and dot blot methods (DYKDDDDK-Tag (3B9) mAb, Abmart, M20008; Anti-Biotin, Vector, sp-3000).

Male SD rats = conditions: rat, in vivo

hATP6V1B2, sequence (P21281 whole entry): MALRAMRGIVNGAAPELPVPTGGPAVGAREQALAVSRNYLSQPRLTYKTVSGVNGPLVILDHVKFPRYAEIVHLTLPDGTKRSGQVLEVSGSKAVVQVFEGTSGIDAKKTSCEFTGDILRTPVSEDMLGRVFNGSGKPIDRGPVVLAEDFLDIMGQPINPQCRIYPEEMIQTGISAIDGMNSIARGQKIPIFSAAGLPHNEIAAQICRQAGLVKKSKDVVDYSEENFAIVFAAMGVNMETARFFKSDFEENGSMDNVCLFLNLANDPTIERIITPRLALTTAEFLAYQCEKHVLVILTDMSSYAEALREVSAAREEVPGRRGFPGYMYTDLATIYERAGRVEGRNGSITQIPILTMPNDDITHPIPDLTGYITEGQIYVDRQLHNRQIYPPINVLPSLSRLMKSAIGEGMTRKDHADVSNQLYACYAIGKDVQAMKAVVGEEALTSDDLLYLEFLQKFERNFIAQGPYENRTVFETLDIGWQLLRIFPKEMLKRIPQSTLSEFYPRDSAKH

QD202: Polypeptide synthesized according to the amino acid sequence set forth in SEQ ID NO: 1; ATP6V1B2 regulator / DIR regulator (YGRKKRRQRRRSPVDVVCS; not fully specified)
binding to Myc-tagged hATP6V1B2 (co-immunoprecipitation) (hATP6V1B2): bind to | learning and cognitive functions in the novel object recognition test (APP/PS1 transgenic mice [1]; intragastric, 6.25 mg/kg, ten-month-old APP/PS1 mice, FIG. 9): obvious improvement of learning and cognitive functions | learning and cognitive functions in novel object recognition (APP/PS1 transgenic mice [1]; intravenous injection, 1.25 mg/kg, APP/PS1 mice of 10 months old, FIG. 11): obvious improvement on learning and cognitive functions | learning and cognitive functions in the water maze behavior (APP/PS1 transgenic mice [2]; intragastric, 6.25 mg/kg, ten-month-old APP/PS1 mice, FIG. 10): obvious improvement of learning and cognitive functions | learning and cognitive functions in water maze behavior (APP/PS1 transgenic mice [2]; intravenous injection, 1.25 mg/kg, APP/PS1 mice of 10 months old, FIG. 12): obvious improvement on learning and cognitive functions | binding to the DIR protein (co-immunoprecipitation) (DIR protein): can bind | neurobehavioral score (Male SD rats): lower than that of the Model + QD202 placebo group with a statistical difference (p<0.05); also recorded: lower than that of the Model + QD202 placebo group with extremely significant statistical differences (p<0.001)
